In data set [1] the test system is Xoo Xoo28. Format: cell-based, Xanthomonas oryzae pv. oryzae. The conditions noted are these: rich medium, HPLC-purified peptides, peptide 0, 2, 10, 20 μg/ml, 24 h, OD600; lowest concentration inhibiting 50% of growth.
A short description of data set [2]: Circular dichroism, secondary structure deconvolution. Format: physicochemical. The note with it: CD, structural deconvolution; for α-helix content: dissolved in water. The protocol: The peptides were dissolved in water to make a stock solution and then diluted in the solution that contained different concentrations of trifluoroethanol (TFE) to the desired final TFE concentration. The circular dichroism (CD) spectra between 190 and 250nm were recorded on a J-815 CD spectrometer (JASCO, Japan). The bandwidth was 2nm, and the step resolution was 0.05nm. Each sample was scanned twice, and the average of the two measurements was smoothed using the Savitzky-Golay method to get the final CD spectrum. The CD spectra were deconvoluted using the CD Multivariate SSE software version 2.0.1 (JASCO, Japan).
(CD spectra are sensitive to the conformation of chiral molecules.)

In data set [3] the test system is Atu C58C1. Format: cell-based, Agrobacterium tumefaciens. The conditions noted are these: rich medium, HPLC-purified peptides, peptide 0, 2, 10, 20 μg/ml, 24 h, OD600; lowest concentration inhibiting 50% of growth.
For data set [4], the system named is Xev Xvt28.
In data set [5] the test system is Xcc Xcc17. Format: cell-based, Xanthomonas campestris pv. campestris. The conditions noted are these: rich medium, HPLC-purified peptides, peptide 0, 2, 10, 20 μg/ml, 24 h, OD600; lowest concentration inhibiting 50% of growth.
The test system of data set [6] is Eco DH5α.
The subject of another data set is Pst DC3000. The conditions noted are these: Table 4, rich medium, up to 32 μg/ml.
Data set [7] relates to Ralstonia solanacearum (Rs). Format: cell-based. The conditions noted are these: at the highest peptide concentration (32μg/ml) tested; data not shown; before the tests in minimal media.
Another data set concerns Cgl FST02. The note with it: at the highest peptide concentration (32μg/ml) tested; data not shown; before the tests in minimal media.
Data set [8] has as its system Xcc Xcc17. The conditions noted are these: Table 4, rich medium, up to 32 μg/ml.
Data set [9] has as its system Xoo Xoo28. The note with it: Table 4, rich medium, up to 32 μg/ml.
Data set [10] concerns Atu C58C1. The note with it: Table 4, rich medium, up to 32 μg/ml.
The subject of the next data set is Bc. The conditions noted are these: at the highest peptide concentration (32μg/ml) tested; data not shown; before the tests in minimal media.
Another data set relates to Pss B728a. The conditions noted are these: Table 4, rich medium, up to 32 μg/ml.
In data set [11] the test system is Xev Xvt28. The note with it: 48 h.
In data set [12] the test system is Eco DH5α. The note with it: 48 h.
[13] abbreviates: spotted on rich agar 48 h, no colony.

Where two headings read alike, the source gives them in different places.

What is called IC50 is the point on the concentration scale where inhibition reaches its midpoint. A low value points to greater potency. Regarding Ac-WKLLKLLLKLLKLLLKLL-NH2 [pepA], the IC50 entry is “– (“–” indicates that no antimicrobial activity was detected in rich media at the highest peptide concentration (20μg/ml) that was tested in this study.)” in the data set with Xoo Xoo28 [1]; “– (“–” indicates that no antimicrobial activity was detected in rich media at the highest peptide concentration (20μg/ml) that was tested in this study.)” in the data set with Atu C58C1 [3]; “– (key: “–” indicates that no antimicrobial activity was detected in rich media at the highest peptide concentration (20μg/ml) that was tested in this study.)” in the data set on Xev Xvt28 [4]; “– (“–” indicates that no antimicrobial activity was detected in rich media at the highest peptide concentration (20μg/ml) that was tested in this study.)” with Xcc Xcc17 [5]; “– (key: “–” indicates that no antimicrobial activity was detected in rich media at the highest peptide concentration (20μg/ml) that was tested in this study.)” with Eco DH5α [6]. For the same substance, the α-helix content result in data set [2] is listed as “over 90%”.
One may read the MIC as the lowest concentration found to suppress growth. One may read the MBC as the smallest concentration meeting the test's criterion for killing. Read a high MBC as weaker bactericidal potency. Consider Ac-WKKLKKLLKKLKKLLKKL-NH2 [pepD], for which the MIC against Pst DC3000 (48 h, no visible growth) is 16 µg/mL; with Pcc (Table 4, rich medium, 48 h, no visible growth, up to 32 μg/ml), 32 µg/mL; against Xcc Xcc17 [8] (48 h, no visible growth), 2 µg/mL; in the data set on Xoo Xoo28 [9] (48 h, no visible growth), 4 µg/mL; against Atu C58C1 [10] (48 h, no visible growth), 4 µg/mL; in the data set on Pss B728a (48 h, no visible growth), 32 µg/mL. Further, the MIC in the data set on Xev Xvt28 [11] is 4 µg/mL; in the data set with Eco DH5α [12] it was 8 µg/mL. The MBC in the data set with Pst DC3000 (setting [13]) is 32 µg/mL; in the data set with Pcc, “– (key: “–” indicates that no antimicrobial activity was detected in rich media at the highest peptide concentration (32μg/ml) that was tested in this study.)”; against Xcc Xcc17 [8] (setting [13]), 8 µg/mL; with Xoo Xoo28 [9] (setting [13]), 4 µg/mL; against Atu C58C1 [10] (setting [13]), “– (“–” indicates that no antimicrobial activity was detected in rich media at the highest peptide concentration (32μg/ml) that was tested in this study.)”; with Pss B728a (setting [13]), “– (“–” indicates that no antimicrobial activity was detected in rich media at the highest peptide concentration (32μg/ml) that was tested in this study.)”. In addition, the results for the MBC with Xev Xvt28 [11] and against Eco DH5α [12] were 16 µg/mL and 8 µg/mL, respectively. The antimicrobial activity entry (in data set [7]; in the data set with Cgl FST02; in the data set with Bc) was “did not have detectable antimicrobial activity” in each case. For the same substance, the IC50 with Xev Xvt28 [4] (24 h) was found to be 4 µg/mL; in the data set on Eco DH5α [6] (DH5α, 24 h), 10 µg/mL.
With Ac-WKLLKKLLKLLKKLLKLL-NH2 [pepB], the IC50 result in the data set with Xoo Xoo28 [1] is “– (“–” indicates that no antimicrobial activity was detected in rich media at the highest peptide concentration (20μg/ml) that was tested in this study.)”; in the data set on Atu C58C1 [3], “– (“–” indicates that no antimicrobial activity was detected in rich media at the highest peptide concentration (20μg/ml) that was tested in this study.)”; in the data set with Xev Xvt28 [4] (24 h), 20 µg/mL; in the data set with Xcc Xcc17 [5], “– (“–” indicates that no antimicrobial activity was detected in rich media at the highest peptide concentration (20μg/ml) that was tested in this study.)”; with Eco DH5α [6], “– (key: “–” indicates that no antimicrobial activity was detected in rich media at the highest peptide concentration (20μg/ml) that was tested in this study.)”. In [2] (10% TFE), this substance registered a α-helix formation of 90%. The α-helix content entry in data set [2] is given as “about 25%”.

These data come from paper PMC8514817, “De Novo Design of Antimicrobial Peptides With a Special Charge Pattern and Their Application in Combating Plant Pathogens” (Frontiers in Plant Science, 2021).
